One may read the IC50 as the concentration that inhibits the measured activity by half. The low end stands for higher potency, the high end for lower potency.

The source of these data is patent US9714288B2, “Antisense compounds and uses thereof” (The Regents of the University of California, priority 2014, dated 2017).

Converted amounts (≈) assume the structure as drawn. Oligonucleotides are written 5' to 3', each unit as a sugar letter and its base; * is a phosphorothioate linkage, no mark a phosphodiester; rarer units and linkages stand in square brackets, end groups in braces. Plain capitals give the bases only. k = constrained ethyl (cEt); [5mC] = 5-methylcytosine; d = 2'-deoxy (DNA)

The subject of one series is MXD3 mRNA. In words: MXD3 mRNA levels in K-562 cells by quantitative real-time PCR. The series is classed as cell-based, human. The following applies: for MXD3 mRNA at 10 μM oligonucleotide (% control): K-562 cells electroporated with 10 μM, ~24 hours, relative to untreated control; for IC50: K-562 cells, MXD3 mRNA, 0-35.0 μM, approximate values. An excerpt:
Several hundred antisense oligonucleotides that target human MAX Dimerization Protein 3 (MXD3), GENBANK accession number NT_023133.13 truncated 21540000 to 21577000, SEQ ID NO: 1, were synthesized using standard solid phase oligonucleotide synthetic methods. They are chimeric oligonucleotides (“gapmers”) 16 nucleotides in length, composed of a central “gap” region consisting of 10 2′-deoxynucleotides, which is flanked on both sides (5′ and 3′) by three-nucleotide “wings”. The wings are composed of 4′-CH(CH3)—O-2′ modified nucleotides, also known as constrained ethyl or (S)-cEt nucleotides. The internucleoside (backbone) linkages are phosphorothioate throughout the oligonucleotides. All cytosine residues are 5-methylcytosines. The sequences of selected MXD3 targeting antisense oligonucleotides and their start and stop sites along GENBANK accession number NT_023133.13 truncated 21540000 to 21577000 are shown in Table 1 below.
The antisense oligonucleotides were analyzed for their effects on target mRNA levels. K-562 cells were plated at a density of 50,000 cells per well in 96-well plates and were electroporated with 10 μM oligonucleotide or with no oligonucleotide for untreated controls. After approximately 24 hours, RNA was isolated from the cells, and MXD3 mRNA levels were measured by quantitative real-time PCR using primer probe set RTS4263 (forward: 5′-[…]-3′, SEQ ID NO: 2; reverse: 5′-TGGCCAAGGGTTCCATGT-3′, SEQ ID NO: 3; probe: 5′-CTGCAGCCGCTTGCTCCGG-3′, SEQ ID NO: 4). MXD3 mRNA levels were adjusted according to total RNA content, as measured by RIBOGREEN®. Results for selected oligonucleotides are presented as average percent MXD3 mRNA level, relative to untreated control cells, in Table 1.
A subset of the MXD3 targeting antisense oligonucleotides were selected for dose response analysis in K-562 cells. Cells were electroporated with 0, 2.19, 8.75, or 35.0 μM antisense oligonucleotide and analyzed as described above. Results for selected oligonucleotides are presented as approximate IC50 values in Table 1.
(In general: Quantitative PCR measures a nucleic acid by following its amplification.)

The nature of series [1]: Tolerability of antisense oligonucleotides in BALB/c mice. The series is classed as in vivo. The following applies: 50 mg/kg s.c. twice per week for three weeks, #1 most favorable, #13 least favorable. Here is the method: Selected antisense oligonucleotides were then tested for tolerability in vivo. Six week old, male BALB/c mice were injected subcutaneously twice per week for three weeks with 50 mg/kg of an antisense oligonucleotide listed in Table 1 or with PBS. Each treatment group consisted of 4 animals. Two days following the final oligonucleotide administration, the mice were sacrificed and plasma transaminase levels, body weights, and organ weights were evaluated relative to the PBS treated group. Isis numbers 632417, 632461, and 632640 had the most favorable tolerability rankings and were selected as leads. Isis No. 632461 targets human, mouse, and monkey MXD3 sequences with no mismatches and was chosen for use in further studies.

The next series deals with Reh cells. The series is described as follows: Reh cell growth, number of live cells (MTT assay). In kind it is cell-based, human. The following applies: for IC50: Homo sapiens, experimentally determined, Reh cells; for Average number of live cells × 10^3: Table 9, Reh cells, conjugate 2 μM oligonucleotide, Doxorubicin 2.56 ng/mL, Vincristine 1.18 ng/mL.

Take “632407 (antisense k[5mC]*kA*kT*d[5mC]*d[5mC]*dA*d[5mC]*d[5mC]*d[5mC]*dA*d[5mC]*dG*d[5mC]*k[5mC]*kG*kG) [compound 632407]”: in the series on MXD3 mRNA, the “MXD3 mRNA at 10 μM oligonucleotide (% control)” value (shortened to “MXD3 mRNA … (% control)”) is 60.5 % control and 1.64 µM corresponded to half-maximal inhibition (IC50). Further, the “Ranking (tolerability)” value in series [1] stood at 12.

For the molecule “632417 (antisense kG*kG*k[5mC]*d[5mC]*d[5mC]*dT*dG*dG*dA*dG*d[5mC]*dG*dA*kA*k[5mC]*k[5mC]) [compound 632417]”, in the series with MXD3 mRNA, the “MXD3 mRNA … (% control)” value came to 38.3 % control and the IC50 was 7.05 µM. Moreover, the “Ranking (tolerability)” value in series [1] turned out to be 1.

For “632424 (antisense kA*kG*k[5mC]*d[5mC]*dG*d[5mC]*dA*dG*d[5mC]*d[5mC]*d[5mC]*dA*d[5mC]*k[5mC]*k[5mC]*kT) [compound 632424]”, in the series on MXD3 mRNA, the “MXD3 mRNA … (% control)” value is recorded as 94.4 % control and 1.64 µM corresponded to half-maximal inhibition (IC50). In series [1], the “Ranking (tolerability)” value is 9.

Consider “632460 (antisense kA*kT*kA*dA*d[5mC]*d[5mC]*dA*dT*dG*d[5mC]*dT*d[5mC]*dG*kG*k[5mC]*k[5mC]) [compound 632460]”, for which, in the series on MXD3 mRNA, the “MXD3 mRNA … (% control)” value was determined as 59.0 % control and the IC50 is 2.95 µM. Besides, the “Ranking (tolerability)” value in series [1] worked out at 13.

As for “632461 (antisense k[5mC]*kA*k[5mC]*dA*dG*dG*dG*dA*d[5mC]*dG*d[5mC]*dA*dT*kA*kA*k[5mC]) [compound 632461]”, in the series on MXD3 mRNA, the “MXD3 mRNA … (% control)” value is on record as 59.8 % control and 8.99 µM corresponded to half-maximal inhibition (IC50). The “Ranking (tolerability)” value in series [1] was determined as 2.

In the case of “632527 (antisense k[5mC]*kA*kT*d[5mC]*dA*dT*dA*dG*d[5mC]*d[5mC]*dA*dG*dG*k[5mC]*kG*k[5mC]) [compound 632527]”, in the series with MXD3 mRNA, the “MXD3 mRNA … (% control)” value was found to be 76.5 % control and the IC50 worked out at 9.23 µM. Further, in series [1], the “Ranking (tolerability)” value worked out at 8.

Turning to “632528 (antisense kA*kG*kG*dA*dA*d[5mC]*dA*dT*d[5mC]*dA*dT*dA*dG*k[5mC]*k[5mC]*kA) [compound 632528]”, in the series on MXD3 mRNA, the “MXD3 mRNA … (% control)” value was determined as 63.6 % control and half-maximal inhibition (IC50) required 5.89 µM. Also, the “Ranking (tolerability)” value in series [1] is on record as 5.

As for “632634 (antisense kG*kG*kA*dT*dT*dA*d[5mC]*dT*dG*dT*d[5mC]*d[5mC]*dT*kA*kG*kG) [compound 632634]”, in the series with MXD3 mRNA, the “MXD3 mRNA … (% control)” value is listed as 47.4 % control and the IC50 came to 5.71 µM. Moreover, in series [1], the “Ranking (tolerability)” value was determined as 10.

As for “632640 (antisense k[5mC]*kA*kA*dG*d[5mC]*dA*dA*d[5mC]*dA*dA*dG*dT*dG*kG*kG*k[5mC]) [compound 632640]”, in the series with MXD3 mRNA, the “MXD3 mRNA … (% control)” value is listed as 65.6 % control and the midpoint of inhibition, the IC50, lay at 0.38 µM. Also, the “Ranking (tolerability)” value in series [1] is 3.

In the case of “632669 (antisense kT*kA*kA*dA*d[5mC]*dA*d[5mC]*dT*dT*dG*dT*d[5mC]*dA*kG*kA*kG) [compound 632669]”, in the series on MXD3 mRNA, the “MXD3 mRNA … (% control)” value amounted to 34.0 % control and the IC50 worked out at 9.05 µM. Further, the “Ranking (tolerability)” value in series [1] came to 4.

For the molecule “632672 (antisense kA*kT*k[5mC]*d[5mC]*dA*dT*d[5mC]*d[5mC]*dG*dA*dG*dA*dA*k[5mC]*k[5mC]*kA) [compound 632672]”, in the series with MXD3 mRNA, the “MXD3 mRNA … (% control)” value was 50.3 % control and half-maximal inhibition (IC50) required 4.76 µM. Besides, in series [1], the “Ranking (tolerability)” value is given as 6.

In the case of “632673 (antisense k[5mC]*kA*k[5mC]*dA*dT*d[5mC]*dA*dT*d[5mC]*d[5mC]*dA*dT*d[5mC]*k[5mC]*kG*kA) [compound 632673]”, in the series on MXD3 mRNA, the “MXD3 mRNA … (% control)” value was found to be 27.5 % control and the IC50 came out at 5.58 µM. Further, the “Ranking (tolerability)” value in series [1] is listed as 7.

Turning to “632682 (antisense kG*kT*k[5mC]*dA*dT*dT*d[5mC]*dA*dA*d[5mC]*dA*dA*dG*kA*kA*kG) [compound 632682]”, in the series on MXD3 mRNA, the “MXD3 mRNA … (% control)” value was 28.4 % control and half-maximal inhibition (IC50) required 5.61 µM. In addition, the “Ranking (tolerability)” value in series [1] is reported as 11.

In the case of `COc1cccc2c1C(=O)c1c(O)c3c(c(O)c1C2=O)C[C@@](O)(C(=O)CO)C[C@@H]3O[C@H]1C[C@H](N)[C@H](O)[C@H](C)O1` [Doxo, Doxorubicin], in the series on Reh cells, half-maximal inhibition (IC50) required 2.56 ng/mL (≈ 4.71 nM). The “Average number of live cells × 10^3” value in the series on Reh cells (4 hours) is given as 22.3 × 10^3; in the series with Reh cells (8 hours), 22.9 × 10^3; with Reh cells (24 hours), 30 × 10^3; with Reh cells (48 hours) it was 37 × 10^3; in the series on Reh cells (72 hours), 41.8 × 10^3.

For the molecule `CC[C@]1(O)C[C@H]2CN(CCc3c([nH]c4ccccc34)[C@@](C(=O)OC)(c3cc4c(cc3OC)N(C=O)[C@H]3[C@@](O)(C(=O)OC)[C@H](OC(C)=O)[C@]5(CC)C=CCN6CC[C@]43[C@@H]65)C2)C1` [Vcr, Vincristine], the midpoint of inhibition with Reh cells, the IC50, lay at 1.18 ng/mL (≈ 1.43 nM). For the same molecule, the “Average number of live cells × 10^3” value in the series on Reh cells (4 hours) was 20.2 × 10^3; in the series on Reh cells (8 hours), 19.6 × 10^3; with Reh cells (24 hours) it was 27.8 × 10^3; in the series on Reh cells (48 hours), 33.1 × 10^3; with Reh cells (72 hours), 34.8 × 10^3.
